The record followed here is US9353061B2, “3,5,N-trihydroxy-alkanamide and derivatives: method for making same and use thereof” (Academia Sinica, priority 2012, dated 2016).

Structures are written as SMILES. Where “and” joins values, the source holds several entries; their conditions need not be identical. Equal entries are not always repeated. Where two headings read alike, the source gives them in different places. Bounds are passed on as bounds.

The target of data set [1] is HMG-CoA reductase in A549 lung cancer cells (Homo sapiens (Human), UniProt P04035). Briefly: Cell-based assay of HMGR inhibition (cell lysates). Conditions: A549 cells treated 24 hours, FIG. 3. Here is the method:
(§1) The HMGR activity was performed using HMG-CoA reductase assay kit from Sigma-Aldrich with the human recombinant protein or 100 μg total cell lysates from A549 cells. […] HMGR activity under defined assay conditions, containing NADPH and HMG-CoA substrate in a final volume of 0.2 mL of 100 mM potassium phosphatate buffer (120 mM KCl, 1 mM EDTA, 5 mM DTT, pH 7.4), were initiated in the presence or absence (control) of test compounds dissolved in dimethylsulfoxide (DMSO). The rates of NADPH consumption were monitored every 20 seconds, for up to 10 minutes, by spectrophotometer at 37° C. and 340 nm. The HMGR activity was calculated as a percentage of activity compared with the control group at 5 min. The IC50 values were calculated from software SigmaPlot.

Data set [2] deals with MEF normal mouse fibroblast cells. Briefly: cells. The data set is classed as cell-based. Conditions: for cytotoxicity on MEF normal cells (in words) / IC50: 72 h; for cytotoxicity on MEF normal cells (in words): MTT, FIG. 4C/4D; for toxicity to normal cells at 100 μM: MEF; for IC50: MTT assay; for SI A549/MEF (selectivity index): ratio of IC50 values, cancer cell and normal cell. A general note: Tetrazolium assays rely on reduction of a dye to a coloured formazan, in cell work by metabolically active cells.
Procedure: (§4) The cell viability was measured by MTT assay.
(§5) A549 human lung carcinoma cells from American Type Culture Collection (ATCC) were cultured in Dulbecco's Modified Eagle Medium (DMEM). […] All mediums were supplemented with 10% fetal bovine serum (FBS), 100 U/mL penicillin G and 100 mg/mL streptomycin sulfate. Cells were maintained in a humidified incubator containing 5% CO2 in air. Cells were subcultured by trypsinization in laminar flow when grew about 80% in the culture dishes.
(§6) A549 cells were seeded at 3000 cells/well in 96-well plates and maintained for 14-16 hours. Cells were treated with dimethylsulfoxide DMSO or test compounds in varied concentrations for 72 h. Cells were then washed with PBS twice, added a medium containing 3-(4,5-dimethylthiazol-2-yl)-2,5-diphenyltetrazolium bromide (MTT) at a final concentration of 0.5 mg/mL, and incubated for 4 h at 37° C. in a humidified incubator containing 5% CO2 in air. Cells having functional succinate dehydrogenase of mitochondria would convert MTT to formazan. Then, the medium was replaced with 100 μL of DMSO for 30 min at room temperature, and the 96-well plate was read by an ELISA reader at 550 nm to get the absorbance density values. The IC50 values of death cell lines were calculated accordingly.

Data set [3] deals with A549 human lung cancer cells. The data set can be described thus: Cell proliferation (MTT) assay, cancer cells. Particulars: for cell viability of A549 (in words): MTT, FIG. 4A/4D.
Procedure: as §4, §5, §6
The target in data set [4] is HDAC2 (Homo sapiens (Human), UniProt Q92769). Briefly: HDAC fluorimetric activity assay (Fluor-de-Lys). Format: biochemical.
The test system of data set [5] is HS68 normal human fibroblast cells. The data set can be described thus: cells. The data set is classed as cell-based. Conditions: for cytotoxicity on HS68 normal cells (in words) / IC50: 72 h; for cytotoxicity on HS68 normal cells (in words): MTT, FIG. 4B/4D; for toxicity to normal cells at 100 μM: HS68, 100 μM; for IC50: MTT assay.
Procedure: as §4, §5, §6
The target of data set [6] is HDAC6 (Homo sapiens (Human), UniProt Q9UBN7). The data set can be described thus: HDAC fluorimetric activity assay (Fluor-de-Lys). The data set is classed as biochemical. Conditions: recombinant HDAC6. Here is the method: (§2) The HDAC activity was performed using the HDAC fluorescent activity assay kit (BIOMOL, Plymouth Meeting, Pa., USA) according to the manufacturer's instructions. Briefly, recombinant proteins of HDAC1 or HDAC6 were incubated with test compounds, and HDAC reaction was initiated by addition of Fluor-de-Lys substrate. Samples were incubated for 10 min at room temperature, followed by adding developer to stop the reaction. Fluorescence was measured by fluorometric reader with excitation at 360 nm and emission at 460 nm. The HDAC activity was expressed as arbitrary fluorescence units (AFU). The HDAC activity was calculated as a percentage of activity compared with the control group. The half maximal inhibitory concentration (IC50) values for the test compounds were calculated from software SigmaPlot.
(§3) HDAC fluorometric activity assay was performed using Fluor-de-Lys as the substrate (BIOMOL, Plymouth Meeting, Pa., USA), and HMGR inhibition was evaluated by the […].

In data set [7] the target is HDAC1 (Homo sapiens (Human), UniProt Q13547). The data set can be described thus: HDAC fluorimetric activity assay (Fluor-de-Lys). Conditions: recombinant HDAC1. The data set is classed as biochemical. Here is the method: as §2, §3
Data set [8] has as its system AOM/DSS-induced colitis-associated colorectal cancer. The data set can be described thus: AOM/DSS colitis-associated colorectal cancer model, treatment after AOM/DSS. Particulars: for AOM/DSS-induced weight loss / clinical symptoms: oral 100 mg/kg, 5 days a week for 3 weeks after AOM/DSS; for histological examination of colon: treatment after AOM/DSS.
Procedure: Lova-HA and Atorva-HA were dissolved in corn oil. Lova-HA (100 mg/kg), Atorva-HA (100 mg/kg) or the vehicle (corn oil) was orally administered after AOM/DSS treatment 5 days a week for 3 weeks. All mice were sacrificed after 12 weeks and colon segments were fixed in formalin.
To further investigate whether Lova-HA and Atorva-HA can treat cancer, a C57/BL6 mouse model of colitis-associated CRC was performed after the AOM and 3 cycles of DSS treatment. […] The formation of polyps and colonic tumors were macroscopically observed and counted.
The test system of data set [9] is acetyl-histone H3 and acetyl-tubulin in A549 lung cancer cells. The data set can be described thus: Western blot of acetyl-histone H3 and acetyl-tubulin. Conditions: dose-dependent, FIG. 2. The data set is classed as cell-based, human. Here is the method:
FIG. 2 is a photo showing the effect of test compounds on acetylation of histone H3 and tubulin in A549 lung cancer cell lines. […] A549 cells were treated with the indicated doses of test compounds. Total cell lysates were prepared and subjected to SDS-PAGE using adequate percentage of polyacrylamide gels. Immunoblotting was performed using specific antibodies to evaluate the expression of different proteins.
Following treatment with test compounds, cells were lysed on ice. Total cell lysates were centrifuged at 13,000 rpm for 15 min at 4° C., and then subjected to SDS-PAGE using adequate percentage polyacrylamide gels. Immunoblotting was performed using specific antibodies to evaluate the expression of different proteins.
A549 lung cancer cells were treated with the test compound, and the expression of acetyl-histone H3 and acetyl-tubulin were analyzed by SDS-PAGE using immunoblotting.
In general terms: A western blot detects proteins with antibodies after separation by electrophoresis.

In data set [10] the target is HMG-CoA reductase (HMGR) (Homo sapiens (Human), UniProt P04035). Briefly: HMG-CoA reductase activity assay (NADPH consumption, Sigma kit). The data set is classed as biochemical. Conditions: for HMGR inhibition (in words): enzyme-based; for IC50: human recombinant protein. Here is the method:
as §1, §3

Data set [11] deals with AOM/DSS-induced colitis-associated colorectal cancer. Briefly: AOM/DSS colitis-associated colorectal cancer model, chemoprevention.
Source text: All mice were sacrificed at 9 weeks and colon segments were fixed by formalin.
Male C57BL6 mice obtained at 4-5 weeks of age were divided into four groups. […] All mice were sacrificed after 9 weeks and colon segments were fixed in formalin. H&E stain colonic sections were examined for colonic aberrant crypts.
The formation of polyps and colonic tumors were macroscopically observed and counted.
Where [12] appears, read: Homo sapiens, A549, 72 h, read-out: IC50 (μM) A549, 72 h, MTT assay.

Chain of HMG-CoA reductase (HMGR) (P04035 426-888): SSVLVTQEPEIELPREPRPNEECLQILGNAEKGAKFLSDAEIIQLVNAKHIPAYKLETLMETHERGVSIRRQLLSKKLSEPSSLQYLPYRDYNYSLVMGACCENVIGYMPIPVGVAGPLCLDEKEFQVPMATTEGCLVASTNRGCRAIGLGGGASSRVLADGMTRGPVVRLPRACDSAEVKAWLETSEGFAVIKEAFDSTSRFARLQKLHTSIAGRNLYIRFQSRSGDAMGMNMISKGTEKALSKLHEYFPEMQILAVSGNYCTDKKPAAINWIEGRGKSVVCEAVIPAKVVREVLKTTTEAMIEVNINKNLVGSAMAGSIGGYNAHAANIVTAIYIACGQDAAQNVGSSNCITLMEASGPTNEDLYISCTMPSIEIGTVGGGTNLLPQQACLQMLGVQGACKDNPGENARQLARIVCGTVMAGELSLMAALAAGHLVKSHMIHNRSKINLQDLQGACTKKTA
Chain of HDAC1 (Q13547 whole entry): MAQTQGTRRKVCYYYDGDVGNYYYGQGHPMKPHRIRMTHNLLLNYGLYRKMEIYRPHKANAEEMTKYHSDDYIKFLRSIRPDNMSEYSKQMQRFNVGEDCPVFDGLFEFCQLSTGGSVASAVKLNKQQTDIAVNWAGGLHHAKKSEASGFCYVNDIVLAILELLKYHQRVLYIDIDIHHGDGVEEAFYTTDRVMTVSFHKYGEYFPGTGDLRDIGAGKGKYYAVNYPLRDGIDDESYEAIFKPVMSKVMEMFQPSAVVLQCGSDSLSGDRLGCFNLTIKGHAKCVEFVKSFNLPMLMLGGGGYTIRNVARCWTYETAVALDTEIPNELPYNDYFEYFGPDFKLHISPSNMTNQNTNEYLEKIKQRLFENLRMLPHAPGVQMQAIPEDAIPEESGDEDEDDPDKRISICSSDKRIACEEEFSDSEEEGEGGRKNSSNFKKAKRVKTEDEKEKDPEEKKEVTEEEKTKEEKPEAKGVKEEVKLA
Chain of HDAC6 (Q9UBN7 whole entry): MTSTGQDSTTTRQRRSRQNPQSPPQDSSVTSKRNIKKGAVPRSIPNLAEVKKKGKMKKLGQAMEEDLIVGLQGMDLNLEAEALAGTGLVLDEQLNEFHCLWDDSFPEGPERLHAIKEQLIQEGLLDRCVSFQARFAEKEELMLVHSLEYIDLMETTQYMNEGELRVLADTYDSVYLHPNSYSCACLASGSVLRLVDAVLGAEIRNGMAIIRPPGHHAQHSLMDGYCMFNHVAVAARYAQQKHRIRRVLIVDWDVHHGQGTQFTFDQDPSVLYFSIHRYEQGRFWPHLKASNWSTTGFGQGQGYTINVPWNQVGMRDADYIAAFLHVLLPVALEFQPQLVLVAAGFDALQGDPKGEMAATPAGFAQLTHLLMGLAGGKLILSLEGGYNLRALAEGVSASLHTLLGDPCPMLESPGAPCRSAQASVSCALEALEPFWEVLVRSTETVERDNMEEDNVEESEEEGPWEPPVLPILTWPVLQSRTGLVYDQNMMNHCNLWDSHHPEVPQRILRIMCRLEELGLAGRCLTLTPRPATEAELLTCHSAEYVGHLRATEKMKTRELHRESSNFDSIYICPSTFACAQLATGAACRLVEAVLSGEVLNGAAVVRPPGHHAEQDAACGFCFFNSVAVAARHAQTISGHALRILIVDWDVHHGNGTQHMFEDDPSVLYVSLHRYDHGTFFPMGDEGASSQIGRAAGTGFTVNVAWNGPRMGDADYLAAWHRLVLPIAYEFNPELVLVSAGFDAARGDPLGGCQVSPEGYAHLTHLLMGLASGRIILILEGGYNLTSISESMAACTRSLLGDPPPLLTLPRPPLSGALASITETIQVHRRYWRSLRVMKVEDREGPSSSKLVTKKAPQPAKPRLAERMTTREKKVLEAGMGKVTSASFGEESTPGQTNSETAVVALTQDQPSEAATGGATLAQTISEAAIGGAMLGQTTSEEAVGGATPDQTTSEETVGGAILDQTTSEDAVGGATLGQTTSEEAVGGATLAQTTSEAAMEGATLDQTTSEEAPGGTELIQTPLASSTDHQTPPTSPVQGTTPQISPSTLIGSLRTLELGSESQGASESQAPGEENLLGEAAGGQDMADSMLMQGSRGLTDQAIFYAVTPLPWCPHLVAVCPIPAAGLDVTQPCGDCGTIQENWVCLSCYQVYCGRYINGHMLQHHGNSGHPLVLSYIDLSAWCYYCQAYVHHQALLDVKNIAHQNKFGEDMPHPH
Chain of HDAC2 (Q92769 whole entry): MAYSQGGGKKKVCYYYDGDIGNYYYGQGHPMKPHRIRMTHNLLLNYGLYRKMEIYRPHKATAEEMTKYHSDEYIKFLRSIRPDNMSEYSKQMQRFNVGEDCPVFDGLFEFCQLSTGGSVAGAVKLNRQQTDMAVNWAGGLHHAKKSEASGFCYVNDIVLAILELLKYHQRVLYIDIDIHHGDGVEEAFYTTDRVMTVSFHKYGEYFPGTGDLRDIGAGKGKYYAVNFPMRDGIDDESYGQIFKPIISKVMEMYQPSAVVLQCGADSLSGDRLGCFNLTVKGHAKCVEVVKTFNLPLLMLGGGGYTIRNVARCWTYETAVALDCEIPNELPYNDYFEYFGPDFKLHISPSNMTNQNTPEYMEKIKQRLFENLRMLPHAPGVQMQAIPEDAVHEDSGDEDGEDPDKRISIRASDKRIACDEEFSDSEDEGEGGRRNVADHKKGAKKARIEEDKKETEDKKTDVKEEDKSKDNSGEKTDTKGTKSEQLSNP
Chain of HMG-CoA reductase in A549 lung cancer cells (P04035 whole entry): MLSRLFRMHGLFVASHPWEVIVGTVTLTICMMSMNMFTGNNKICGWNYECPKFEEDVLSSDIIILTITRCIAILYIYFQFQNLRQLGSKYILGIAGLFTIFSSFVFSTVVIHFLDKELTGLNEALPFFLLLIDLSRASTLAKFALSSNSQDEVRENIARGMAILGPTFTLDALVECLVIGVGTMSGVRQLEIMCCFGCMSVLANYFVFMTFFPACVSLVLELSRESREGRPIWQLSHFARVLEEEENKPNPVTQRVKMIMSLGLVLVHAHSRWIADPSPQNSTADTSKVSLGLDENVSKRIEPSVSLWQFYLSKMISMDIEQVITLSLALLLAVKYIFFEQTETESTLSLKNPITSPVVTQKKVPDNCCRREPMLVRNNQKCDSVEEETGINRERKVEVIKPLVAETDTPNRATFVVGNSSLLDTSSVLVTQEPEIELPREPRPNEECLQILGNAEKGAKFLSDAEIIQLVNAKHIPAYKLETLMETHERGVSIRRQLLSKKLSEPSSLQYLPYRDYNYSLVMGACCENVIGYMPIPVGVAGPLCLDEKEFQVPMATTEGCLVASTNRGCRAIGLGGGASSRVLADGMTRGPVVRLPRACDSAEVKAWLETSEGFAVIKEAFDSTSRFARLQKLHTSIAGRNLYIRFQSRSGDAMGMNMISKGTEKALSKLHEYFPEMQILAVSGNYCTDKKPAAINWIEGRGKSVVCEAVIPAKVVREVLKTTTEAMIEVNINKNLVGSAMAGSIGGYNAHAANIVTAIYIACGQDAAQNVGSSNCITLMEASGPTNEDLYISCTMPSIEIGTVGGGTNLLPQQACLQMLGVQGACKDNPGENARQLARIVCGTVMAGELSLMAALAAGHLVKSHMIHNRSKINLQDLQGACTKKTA

As usually defined, the IC50 is the concentration that gives 50% inhibition. Take `CC(C)c1c(C(=O)Nc2ccccc2)c(-c2ccccc2)c(-c2ccc(F)cc2)n1CC[C@@H](O)C[C@@H](O)CC(=O)NO` [Atorva-HA, (3R,5R)-7-[2-(4-Fluoro-phenyl)-5-isopropyl-3-phenyl-4-phenylcarbamoylpyrrol-1-yl]-3,5-dihydroxy-N-hydroxyheptanamide]: the “HMGR inhibition in cell lysates compared with lovastatin” value in data set [1] is recorded as “equal or even better activity than lovastatin”. For the same compound, the “cytotoxicity on MEF normal cells (in words)” value in data set [2] is “did not have cytotoxicity”. Also, the “toxicity to normal cells at 100 μM” value in data set [2] and in [5] was “not toxic” in each case. The IC50 is more than 100 µM in data set [2] (Mus musculus, Fibroblast); less than 20 µM in [3] (setting [12]); 17.5 ± 4.7 µM in data set [3] (read-out: IC50 (μM) A549, 72 h, MTT assay, listed as Atorva-HA (5)); 467 ± 19 nM in [4]; more than 100 µM in [5] (Homo sapiens, Hs68); 83.7 nM in [6]. The IC50 in data set [7] is 117 nM; in data set [10], 9.2 nM. The “SI A549/MEF (selectivity index)” value in data set [2] is given as more than 5.7. Further, in data set [3] (72 h), the “cell viability of A549 (in words)” value is reported as “reduced”. Also, the “cytotoxicity on HS68 normal cells (in words)” value in data set [5] is listed as “did not have cytotoxicity”. Moreover, in [8] (100 mg/kg oral), the “number and size of tumors” value is “markedly reduced the number and size of tumors”. Besides, in data set [8], the AOM/DSS-induced weight loss entry was “could protect the weight loss”. The clinical symptoms entry in data set [8] is listed as “attenuated”. In addition, the “histological examination of colon” value in [8] is “surface tumor necrosis”. For the same compound, the “acetylation of histone H3 and tubulin” value in [9] was “promoted the acetylations of histone and tubulin”. Besides, the “HMGR inhibition (in words)” value in data set [10] is on record as “potent HMGR inhibition”.

The compound `CC(C)c1c(C(=O)Nc2ccccc2)c(-c2ccccc2)c(-c2ccc(F)cc2)n1CC[C@@H](O)C[C@@H](O)CC(=O)O` [Atorvastatin, atorvastatin] registered an IC50 in data set [2] (Mus musculus, Fibroblast) of 30.7 ± 3.2 µM. In [8], the AOM/DSS-induced weight loss entry was “could not protect”, the clinical symptoms entry is given as “not reversed” and the “histological examination of colon” value is recorded as “adenocarcinomas with dysplasia”.

Turning to `CCC(C)C(=O)O[C@H]1C[C@@H](C)C=C2C=C[C@H](C)[C@H](CC[C@@H](O)C[C@@H](O)CC(=O)NO)[C@H]21` (some centres unmarked) [Lova-HA], the “cytotoxicity on MEF normal cells (in words)” value in data set [2] is given as “did not have cytotoxicity”. Also, the “toxicity to normal cells at 100 μM” value in [2] and in data set [5] was “not toxic” throughout. Further, the IC50 is more than 100 µM in [2] (Mus musculus, Fibroblast); less than 20 µM in data set [3] (setting [12]); 18.2 ± 3.4 µM in [3] (read-out: IC50 (μM) A549, 72 h, MTT assay, listed as Lova-HA (1)); 468 ± 27.2 nM in [4]; more than 100 µM in [5] (Homo sapiens, Hs68); 50.5 ± 4 nM in data set [6]. Further, the IC50 came out at 60.1 ± 5.3 nM in data set [7] and 16.8 ± 1.9 nM in data set [10]. Further, in data set [2], the “SI A549/MEF (selectivity index)” value is more than 5.6. Further, the colon length in data set [11] (25 mg/kg oral) came to 8.6±0.4 cm; in data set [11] (50 mg/kg oral) it was 10.1±0.9 cm. The “cytotoxicity on HS68 normal cells (in words)” value in [5] is “did not have cytotoxicity”.

In turn, `CC[C@H](C)C(=O)O[C@H]1C[C@@H](C)C=C2C=C[C@H](C)[C@H](CC[C@@H]3C[C@@H](O)CC(=O)O3)[C@H]21` [Lovastatin, lovastatin] returned an IC50 in [2] of 35 ± 5.9 µM. In addition, in data set [11] (50 mg/kg oral), the colon length worked out at 8.0±0.9 cm and the “histological examination of colon” value is “adenocarcinomas with dysplasia”. The “bleeding and diarrhea (clinical symptoms)” value in data set [11] (oral, Lova-HA 25 or 50 mg/kg, lovastatin 50 mg/kg) is on record as “not reversed”. Also, the “body weight loss after AOM/DSS” value in data set [11] (oral, Lova-HA 25 or 50 mg/kg, lovastatin 50 mg/kg, 5 days a week for 8 weeks) is on record as “but not lovastatin could protect the weight loss”. The IC50 in data set [5] worked out at 23.2 ± 3.5 µM. Also, in data set [8], the AOM/DSS-induced weight loss result is “could not protect”, the clinical symptoms entry was “not reversed” and the “histological examination of colon” value is recorded as “adenocarcinomas with dysplasia”.

As to `CC(C)c1nc(N(C)S(C)(=O)=O)nc(-c2ccc(F)cc2)c1/C=C/[C@@H](O)C[C@@H](O)CC(=O)NO` [Rosuva-HA, (3R,5S,6E)-7-[4-(4-fluorophenyl)-2-(N-methylmethanesulfonamido)-6-isopropylpyrimidin-5-yl]-3,5-dihydroxy-N-hydroxy-6-heptenamide], the IC50 is 400 to 630 nM and 600 nM in [4]; 133 ± 5.5 nM in data set [6]; 125 ± 7.1 nM in data set [7]; 43.7 ± 1.6 nM in [10]. The “acetylation of histone H3 and tubulin” value in [9] was “promoted the acetylations of histone and tubulin”. Also, in data set [10], the “HMGR inhibition (in words)” value is “potent HMGR inhibition”.

With `O=C(CCCCCCC(=O)Nc1ccccc1)NO` [SAHA, suberoylanalide hydroxamic acid, reference compound], the “cytotoxicity on MEF normal cells (in words)” value in data set [2] is given as “toxic to normal cells”. Besides, the “cell viability of A549 (in words)” value in data set [3] (72 h) is “killed cancer cells”. For the same compound, the “cytotoxicity on HS68 normal cells (in words)” value in [5] was “toxic to normal cells”. Also, in data set [8], the AOM/DSS-induced weight loss entry was “could not protect”, the clinical symptoms result is reported as “attenuated” and the “histological examination of colon” value is on record as “surface tumor necrosis”. Moreover, in data set [10], the “HMGR inhibition (in words)” value was “no significant inhibition” and the IC50 was more than 10000 nM.

For the compound `CCC(C)(C)C(=O)O[C@H]1C[C@@H](C)C=C2C=C[C@H](C)[C@H](CC[C@@H](O)C[C@@H](O)CC(=O)NO)[C@H]21` [Simva-HA, (3R,5R)-7-{(1S,2S,6R,8S,8aR)-Hexahydro-2,6-dimethyl-8-[2-dimethylbutyryloxy]naphthalenyl}-3,5-dihydroxy-N-hydroxyheptanamide], the “cytotoxicity on MEF normal cells (in words)” value in data set [2] is recorded as “did not have cytotoxicity”. In addition, the “toxicity to normal cells at 100 μM” value in data set [2] and in data set [5] was “not toxic” throughout. The IC50 in data set [2] (Mus musculus, Fibroblast) was more than 100 µM; in data set [3] (setting [12]), less than 20 µM; in data set [3] (read-out: IC50 (μM) A549, 72 h, MTT assay, listed as Simva-HA (2)), 20 ± 3.1 µM; in [4], 400 to 630 nM; in data set [5] (Homo sapiens, Hs68), more than 100 µM; in [6], 67.1 nM. Besides, the IC50 is 60.7 ± 3.2 nM in [7] and 11.4 nM in data set [10]. In data set [2], the “SI A549/MEF (selectivity index)” value is on record as more than 5.0. In addition, the “cytotoxicity on HS68 normal cells (in words)” value in data set [5] is “did not have cytotoxicity”.

In the case of `CCC(C)(C)C(=O)O[C@H]1C[C@@H](C)C=C2C=C[C@H](C)[C@H](CC[C@@H]3C[C@@H](O)CC(=O)O3)[C@H]21` [simvastatin, reference compound], the IC50 in data set [2] (Mus musculus, Fibroblast) amounted to 36.7 ± 4.4 µM; in data set [3] (Homo sapiens, A549, 72 h, read-out: IC50 (μM) A549), 16.3 ± 0.1 µM; in data set [5] (Homo sapiens, Hs68) it was 26.4 ± 2.1 µM. Further, in data set [2], the “SI A549/MEF (selectivity index)” value was found to be 2.3.
